The term IC50 denotes the midpoint of a concentration-inhibition curve.

These results are taken from patent US7858349B2, “Anti-cancer compounds” (The Regents of the University of Colorado, priority 1999, dated 2010).

Where two headings read alike, the source gives them in different places. Some results are limits rather than exact numbers.

In one assay the test system is SCLC strain SHP-77. Nature of the assay: MTT assay for cell survival, SCLC SHP-77 in vitro. To be noted: ED50 for killing of SCLC strain SHP-77 in vitro, 4 days, 0 = no detectable activity. The class given is cell-based, human.
The test system of a further assay is PC3 PC cells. Briefly: Inhibition of PC3 tumor growth in vivo in nude mice. The arrangement: species or system athymic nude mice; key to PC3 In vivo % inhib.: an IC50 value of “0” represents no detectable anti-cancer activity for a drug in a given cell line; “Stim.” indicates the observation of a stimulatory activity on the growth of the cancer cell line. Conditions: percent inhibition of tumor growth in nude mice; prostate cancer; i.p. 5 mg/kg/every second day or 10 mg/kg/every fourth day. The method, then: Compounds having high in vitro cytotoxic activity were tested against implanted tumors in vivo. Athymic nude mice were implanted subcutaneously with suspensions (2 million SHP-77 SCLC cells, 1 million A549 NSCLC cells or 1.5 million PC3 PC cells) in Matrigel suspension. On the eighth day after tumor implantation groups of 5 mice bearing implants were injected intraperitoneally with the compounds being tested at 5 mg/kg/every second day or at 10 mg/kg/every fourth day; control animals were injected with an equal volume of isotonic saline. Less soluble compounds were initially dissolved in dimethyl sulfoxide (DMSO) and diluted with medium. In those cases the control injections contained the same concentration of DMSO. Tumor size was measured with a caliper three times per week. Tumor volume was calculated by the formula: Volume(cc)=3.14×(length)×(width)^2/6 At autopsy tumors were removed and weighed. Tumor inhibition was calculated on both weight and measurement basis. In each Table, an IC50 value of “0” represents no detectable anti-cancer activity for a drug in a given cell line and “Stim.” indicates the observation of a stimulatory activity on the growth of the cancer cell line.

Regarding `CC1(C)CC(NC(=O)[C@H](Cc2ccc(OC(=O)OCc3ccccc3Br)cc2)NC(=O)/C=C/c2c(F)c(F)c(F)c(F)c2F)CC(C)(C)N1` [Analog M-1608, F5c-ObrZY-Atmp], the 50% inhibitory concentration (IC50) in the assay on SCLC strain SHP-77 (read-out: SCLC SHP-77 IC50) turned out to be 10 µM. Also, the “PC3 In vivo % inhib.” value in the assay with PC3 PC cells is recorded as 29%.
For `CC1(C)CC(NC(=O)C(Cc2ccc(OCc3c(Cl)cccc3Cl)cc2)NC(=O)C=Cc2cccs2)CC(C)(C)N1` (stereo not shown) [Analog M-1418, Thia-OC2Y-Atmp] the same measures were 8.6 µM and 9%.
On to `Cc1ncc(COP(=O)(O)O)c(CN[C@@H](Cc2ccc(OCc3c(Cl)cccc3Cl)cc2)C(=O)NC2CC(C)(C)NC(C)(C)C2)c1O` [Analog M-1612, B6P-OC2Y-Atmp], for which the concentration for half-maximal inhibition (IC50) in the assay with SCLC strain SHP-77 (read-out: SCLC SHP-77 IC50) is over 60 µM. For the same compound, the “PC3 In vivo % inhib.” value in the assay with PC3 PC cells is on record as “Stim”.
Consider `CC1(C)CC(NC(=O)C(Cc2ccc(OCc3c(Cl)cccc3Cl)cc2)NC(=O)c2c(F)c(N)cc(F)c2F)CC(C)(C)N1` (stereo not shown) [Analog M-1452, Atfb-OC2Y-Atmp], for which the IC50 with SCLC strain SHP-77 (read-out: SCLC SHP-77 IC50) was 7.2 µM. Moreover, the “PC3 In vivo % inhib.” value in the assay with PC3 PC cells is on record as “Stim”.
Consider `CC1(C)CC(NC(=O)C(Cc2ccc(OCc3c(Cl)cccc3Cl)cc2)NS(=O)(=O)c2c(F)c(F)c(F)c(F)c2F)CC(C)(C)N1` (stereo not shown) [Analog M-1092, F5BS-OC2Y-Atmp], for which the IC50 with SCLC strain SHP-77 (read-out: SHP-77 In vitro IC50) came out at 14 µM. In addition, the “PC3 In vivo % inhib.” value with PC3 PC cells is reported as “Stim”.
Regarding `CC1(C)CC(NC(=O)C(Cc2ccc(OCc3c(Cl)cccc3Cl)cc2)NC(=O)C2C(C)(C)C2(C)C)CC(C)(C)N1` (stereo not shown) [Analog M-1406, Tmcc-OC2Y-Atmp], the 50% inhibitory concentration (IC50) in the assay with SCLC strain SHP-77 (read-out: SCLC SHP-77 IC50) is 5.3 µM. For the same compound, the “PC3 In vivo % inhib.” value with PC3 PC cells is recorded as 25%.
As to `COc1ccc2c(c1)c(CC(=O)NC(Cc1ccc(OCc3c(Cl)cccc3Cl)cc1)C(=O)NC1CN3CCC1CC3)c(C)n2C(=O)c1ccc(Cl)cc1` [Analog M-1590, Indo-OC2Y-(S)-Aqu], in the assay with SCLC strain SHP-77 (read-out: SCLC SHP-77 IC50), the concentration for half-maximal inhibition (IC50) was 4.1 µM. The “PC3 In vivo % inhib.” value in the assay with PC3 PC cells was “Stim”.
On to `COc1ccc2c(c1)c(CC(=O)N[C@@H](Cc1ccc(C#N)cc1)C(=O)NC1CC(C)(C)NC(C)(C)C1)c(C)n2C(=O)c1ccc(Cl)cc1` [Analog M-1520, Indo-PCNF-Atmp], for which the IC50 in the assay with SCLC strain SHP-77 (read-out: SCLC SHP-77 IC50) was determined as 13 µM. The “PC3 In vivo % inhib.” value with PC3 PC cells is on record as “Stim”.
As to `CC1(C)CC(NC(=O)C(Cc2ccc(Br)cc2)NC(=O)C=Cc2c(F)c(F)c(F)c(F)c2F)CC(C)(C)N1` (stereo not shown) [Analog M-1144, F5c-PBF-Atmp], in the assay on SCLC strain SHP-77 (read-out: SHP-77 In vitro IC50), the IC50 came to 7.2 µM. In addition, the “PC3 In vivo % inhib.” value in the assay with PC3 PC cells is given as 20%.
`CC1(C)CC(NC(=O)[C@H](Cc2ccc(OCc3c(Cl)cccc3Cl)cc2)NC(=O)C(C#N)=Cc2ccc(O)cc2)CC(C)(C)N1` [Analog M-1638, Chc-OC2Y-Atmp]: the half-inhibitory concentration (IC50) with SCLC strain SHP-77 (read-out: SCLC SHP-77 IC50) was 18 µM. In the assay with PC3 PC cells, the “PC3 In vivo % inhib.” value was found to be 39%.
For the compound `CC1(C)CC(NC(=O)C(Cc2ccc(OCc3c(Cl)cccc3Cl)cc2)NC(=O)C2CCc3ccccc3C2)CC(C)(C)N1` (stereo not shown) [Analog M-1440, Th2n-OC2Y-Atmp], the half-inhibitory concentration (IC50) in the assay with SCLC strain SHP-77 (read-out: SCLC SHP-77 IC50) was 3.5 µM. Further, the “PC3 In vivo % inhib.” value in the assay with PC3 PC cells stood at 15%.
With `CC1(C)CC(NC(=O)C(Cc2c[nH]c3ccccc23)NC(=O)C=Cc2c(F)c(F)c(F)c(F)c2F)CC(C)(C)N1` (stereo not shown) [Analog M-1114, F5c-Trp-Atmp], in the assay on SCLC strain SHP-77 (read-out: SHP-77 In vitro IC50), the IC50 was over 60 µM. For the same compound, the “PC3 In vivo % inhib.” value in the assay on PC3 PC cells came out at 28%.
As to `CC1(C)CC(NC(=O)C(Cc2ccc(OCc3c(Cl)cccc3Cl)cc2)NC(=O)C2CSC(=O)N2)CC(C)(C)N1` (stereo not shown) [Analog M-1630, Otac-OC2Y-Atmp], in the assay on SCLC strain SHP-77 (read-out: SCLC SHP-77 IC50), the IC50 came out at 60 µM. In addition, the “PC3 In vivo % inhib.” value in the assay on PC3 PC cells turned out to be 71%.
Take `CN1CCN(CCCNC(=O)[C@H](Cc2ccc(OCc3c(Cl)cccc3Cl)cc2)NC(=O)/C=C/c2c(F)c(F)c(F)c(F)c2F)CC1` [Analog M-1582, F5c-OC2Y-Amp]: the IC50 with SCLC strain SHP-77 (read-out: SCLC SHP-77 IC50) was found to be 6.7 µM. The “PC3 In vivo % inhib.” value in the assay with PC3 PC cells was 60%.
`CC1(C)CC(NC(=O)C(Cc2ccc(OCc3c(Cl)cccc3Cl)cc2)NC(=O)C(C2CCCCC2)C2CCCCC2)CC(C)(C)N1` (stereo not shown) [Analog M-1116, Dca-OC2Y-Atmp]: in the assay with SCLC strain SHP-77 (read-out: SHP-77 In vitro IC50), the IC50 came out at 7.5 µM. Further, the “PC3 In vivo % inhib.” value with PC3 PC cells worked out at 19%.
For `CC1(C)CC(NC(=O)[C@H](Cc2ccc(C#N)cc2)NC(=O)C23CC4CC(CC(C4)C2)C3)CC(C)(C)N1` [Analog M-1496, Aca-PCNF-Atmp], the IC50 in the assay with SCLC strain SHP-77 (read-out: SCLC SHP-77 IC50) was over 60 µM. Also, the “PC3 In vivo % inhib.” value with PC3 PC cells is 2%.
With `CC1(C)CC(NC(=O)[C@H](Cc2ccc(OCc3c(Cl)cccc3Cl)cc2)NCC=C(c2ccccc2)c2ccccc2)CC(C)(C)N1` [Analog M-1600, Pcnl-OC2Y-Atmp], the IC50 in the assay with SCLC strain SHP-77 (read-out: SCLC SHP-77 IC50) came out at 4.1 µM. Moreover, in the assay on PC3 PC cells, the “PC3 In vivo % inhib.” value was 44%.
